We go through nine substances from patent publication US5519000A, “Tumor necrosis factor inhibitors” (Centecor, Inc., priority 1994, dated 1996).

No end group written: not given here.

This test concerns the target T1, human TNFα (Homo sapiens, UniProt P01375).
T1 construct: purchased Biosource, Camarillo, Calif
Put plainly: p55 receptor/IgG fusion protein binding assay (inhibition of TNFα capture by p55-Ig coated plate). Conditions: human recombinant TNFα 25 ng/ml preincubated with peptide; relative to TNFα in the absence of peptide; read-out: IC50 (concentration necessary to inhibit TNFα by 50%), inhibition of binding of TNFα to p55TNFr-IgG chimeric construct. As to the method:
In order to screen compounds for their ability to block TNFα binding to the TNF p55 receptor, an assay has been designed using TNFα and a p55/IgG fusion protein in place of monovalent, non-fusion p55 TNF receptor protein. This assay was designed to identify peptides which bind to human TNFα and thereby prevent the capture of the TNFα by a microtiter plate coated with p55-Ig fusion protein. A constant concentration of human TNFα is preincubated with the test peptide and then incubated on the p55-Ig coated microtiter wells. Bound TNFα is detected using a specific antisera and an alkaline phosphatase-conjugated probe. An active peptide will reduce the amount of human TNFα bound to the well relative to control wells in which TNFα but no peptide was added.
A 96-well, U-bottom polyvinylchloride microtiter plate was coated with 50 μl/well of p55-Ig fusion protein at 5 μg/ml in 0.01M sodium phosphate, 0.15M sodium chloride (PBS) by incubation overnight at 4° C. or 2 hours at 37° C. The fusion protein, which consists of a p55 TNF receptor protein portion and an IgG portion, can be produced as disclosed in U.S. application Ser. No. 08/010,406 filed Jan. 29, 1993 which is incorporated herein by reference. The plate was washed three times with 0.05% Tween-20 in PBS, then blocked, by adding 150 μl/well of assay buffer (10 mM N-2-hydroxyethylpiperazine-N'-[…] (HEPES) pH 7.2, containing 0.1% porcine gelatin, 0.1% Tween-80, and 0.01% sodium azide) and continuing incubation for 1 hour at 37° C. or at 4° C. for 1-7 days.
Lyophilized peptides to be tested were weighed in tared 12×75 mm polystyrene tubes and reconstituted to a concentration of 1.2 mM with assay buffer. Each suspension was sonicated in a water bath for 1-5 minutes and vortexed 15-30 seconds to disperse large particles. Serial dilutions of each peptide suspension were prepared using assay buffer in a 96-well polystyrene microtiter plate. Additional wells received Fab fragment of the mouse/human monoclonal anti-human TNFα antibody cA2 (positive control) or assay buffer (negative control). […] The polystyrene dilution plate was then sealed and incubated 1 hour at room temperature on an orbital mixer set at moderate speed.
Following the sample preincubation, blocker was discarded from the p55-Ig coated plate and blotted dry. Aliquots (50 μl) of each peptide or control were transferred into duplicate wells on the p55-Ig coated plate which was then sealed and incubated 1 hour at 37° C. Duplicate wells containing only assay buffer were included as a plate blank. After incubation the p55-Ig plate was washed three times with 0.05% Tween-20 in PBS.
To detect TNFα captured by the p55-Ig plate, all wells were incubated in succession with polyclonal rabbit anti-human TNFα (Genzyme, Boston, Mass.; 1:500 in assay buffer, 50 μl/well), biotinylated goat anti-rabbit Ig (H&L) (Vector Laboratories, Burlingame, Calif.; 1 μg/ml in assay buffer, 50 μl/well) and streptavidin-alkaline phosphatase conjugate (Pierce, Rockford, Ill.; 1 μg/ml in assay buffer, 50 μl/well). All incubations were for 1 hour at 37° C. and after each incubation the plate was washed three times with 0.05% Tween-20 in PBS. Fifty microliters of alkaline phosphatase substrate solution (alkaline buffer (Sigma, St. Louis, Mo.) diluted 1:500 in deionized water plus one 5 mg tablet of p-nitrophenyl phosphate (Sigma, St. Louis, Mo.) per 5 ml of diluted buffer) was added to all wells and incubation continued for 20 minutes at room temperature. Color development was stopped by adding to all wells 50 μl of 3N sodium hydroxide. The optical density (OD) at 405 nm was measured on a microtiter plate reader (Molecular Devices Vmax plate reader), with the plate blank wells subtracted as background. The activity of each peptide was then expressed as the percent inhibition of TNFα capture by the p55-Ig plate, relative to the amount of TNFα captured in wells containing only assay buffer (negative control), as follows: […]

T1 sequence (P01375 77-233 limits assumed): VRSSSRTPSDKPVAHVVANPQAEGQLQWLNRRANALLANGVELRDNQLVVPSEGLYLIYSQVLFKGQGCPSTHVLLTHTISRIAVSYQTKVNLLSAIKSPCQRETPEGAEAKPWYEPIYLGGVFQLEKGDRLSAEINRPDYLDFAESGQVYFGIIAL

With “Ac-DILLTQSPAILSVSPGERVSFS-NH2 [SEQ ID NO:6, Acetyl-aspartyl-isoleucyl-leucyl-leucyl-threonyl-glutaminyl-seryl-prolyl-alanyl-isoleucyl-leucyl-seryl-valyl-seryl-prolyl-glycyl-glutamyl-arginyl-valyl-seryl-phenylalanyl-serine-amide]”, the IC50 was 2530 µM. Next, “Ac-FSNHWMNW-NH2 [SEQ ID NO:9, Acetyl-phenylalanyl-seryl-asparaginyl-histidyl-tryptophyl-methionyl-asparaginyl-tryptophan-amide]”: 60 µM; “Ac-FSNHWMNWVR-NH2 [SEQ ID NO:2, Acetyl-phenylalanyl-seryl-asparaginyl-histidyl-tryptophyl-methtonyl-asparaginyl-tryptophyl-valyl-arginine-amide]”: 410 µM.

Turning to “Ac-INTVESEDIADYYCQQSHSW-NH2 [SEQ ID NO:8, Acetyl-isoleucyl-asparaginyl-threonyl-valyl-glutamyl-seryl-glutamyl-aspartyl-isoleucyl-alanyl-aspartyl-tyrosyl-tyrosyl-cysteinyl-glutaminyl-glutaminyl-seryl-histidyl-seryl-tryptophan-amide]”, the IC50 was 1110 µM.

On to “Ac-LIKYASQSMSGI-NH2 [SEQ ID NO:1, Acetyl-leucyl-tsoleucyl-lysyl-tyrosyl-alanyl-seryl-glutaminyl-seryl-methionyl-seryl-glycyl-isoleucine-amide]”, for which the IC50 amounted to 1880 µM. For “Ac-TDLRTEDTGVYYCSRNYYGSTY-NH2 [SEQ ID NO:5, Acetyl-threonyl-aspartyl-leucyl-arginyl-threonyl-glutamyl-aspartyl-threonyl-glycyl-valyl-tyrosyltyrosyl-cysteinyl-seryl-arginyl-asparaginyl-tyrosyl-tyrosyl-glycyl-seryl-threonyl-tyrosine-amide]”, the IC50 is 1130 µM.

Consider “Ac-YAESVKGRFTISRDDSKSAVYL-NH2 [SEQ ID NO:3, Acetyl-tyrosyl-alanyl-glutamyl-seryl-valyl-lysyl-glycyl-arginyl-phenylalanyl-threonyl-isoleucyl-seryl-arginyl-aspartyl-aspartyl-seryl-lysyl-seryl-alanyl-valyl-tyrosyl-leucine-amide]”, for which the IC50 worked out at 290 µM. As to “Ac-YYSQQSHSWPFTF-NH2 [SEQ ID NO:7, Acetyl-tyrosyl-tyrosyl-seryl-glutaminyl-glutaminyl-seryl-histidyl-seryl-tryptophyl-prolyl-phenylalanyl-threonyl-phenylalanine-amide]”, the IC50 turned out to be 1080 µM. Next, “RQSPEKGLEWVAEIRSKSI-NH2 [SEQ ID NO:4, Arginyl-glutaminyl-seryl-prolyl-glutamyl-lysyl-glycyl-leucyl-glutamyl-tryptophyl-valyl-alanyl-glutamyl-isoleucyl-arginyl-seryl-lysyl-seryl-isoleucine- amide]”: 1020 µM.
